Experiment: solvent given as SMILES

CCC(C)C
Conditions	solvation free energy, 298 K [kcal/mol]
in C1=Cc2ccccc2C1	-2.54
in C=CCCCCCCCCCCCCCC	-2.66
in CC#N	-1.9
in CC(=O)N(C)C	-1.98
in CC(C)(C)O	-2.56
in CCCCCCCCCCCCCCCC	-2.76
in CCCCCCCCCOC(=O)c1ccccc1C(=O)OCCCCCCCCC	-2.36
in CCNC(C)=O	-2.22
in CN1CCCC1=O	-1.8
in CN1CCCCC1=O	-2.01
in CN(C)C=O	-1.9
in CN(C)P(=O)(N(C)C)N(C)C	-2
in CNC(C)=O	-2.03
in CNC=O	-1.57
in ClC(Cl)C(Cl)Cl	-2.38
in Clc1cccc2ccccc12	-2.24
in Ic1ccccc1	-2.37
in N#CCCCCC#N	-1.06
in N#CCc1ccccc1	-1.78
in N#Cc1ccccc1	-2.21
in O	2.39
in O=C1CCCCC1	-2.58

OC1CCCCCC1
Conditions	solvation free energy, 298 K [kcal/mol]
in O	-5.48

ClCCCl
Conditions	solvation free energy, 298 K [kcal/mol]
in Brc1cccc2ccccc12	-4.18
in C1CCOC1	-5.01
in C1COCCO1	-4.98
in CC(=O)CC(C)C	-4.68
in CC(=O)N(C)C	-5.01
in CC(=O)OCc1ccccc1	-4.59
in CC(C)OC(C)C	-3.88
in CCC(C)=O	-4.79
in CCCCCC	-3.75
in CCCCCCC	-3.7
in CCCCCCCC	-3.7
in CCCCCCCCCCCCCC	-3.49
in CCCCCCCCCCCCCCCC	-3.52
in CCCCCCCCN(CCCCCCCC)CCCCCCCC	-3.6
in CCCCCCCCO	-3.78
in CCCCCN(CCCCC)CCCCC	-3.76
in CCCCCl	-4.42
in CCCCN(C=O)CCCC	-4.62
in CCCCN(CCCC)CCCC	-3.65
in CCCCO	-3.98
in CCCCOCCCC	-4.16
in CCO	-4.03
in CCOC(C)=O	-4.72
in CCOCC	-4.45
in CNC(C)=O	-4.45
in COC(=O)OC	-4.73
in COC(C)(C)C	-4.35
in Cc1ccc(C)cc1	-4.41
in Cc1cccc(C)c1	-4.45
in Cc1ccccc1C	-4.42
in ClC(Cl)(Cl)Cl	-4.3
in ClC(Cl)Cl	-4.69
in O	-1.79
in [2H]O[2H]	-1.89
in c1ccc2ncccc2c1	-4.54
in c1ccccc1	-4.68

CN1CCNCC1
Conditions	solvation free energy, 298 K [kcal/mol]
in O	-7.77

Fc1c(F)c(F)c(F)c(F)c1F
Conditions	solvation free energy, 298 K [kcal/mol]
in C1CCOC1	-4.5
in C1COCCO1	-4.23
in CC(C)CC(C)(C)C	-3.53
in CC(C)OC(C)C	-4.13
in CCCCO	-3.46
in CCOCC	-4.35
in O	0.1

Brc1c(Br)c(Br)c(Br)c(Br)c1Br
Conditions	solvation free energy, 298 K [kcal/mol]
in CCCCCCCCC=CCCCCCCCC(=O)OCC(COC(=O)CCCCCCCC=CCCCCCCCC)OC(=O)CCCCCCCC=CCCCCCCCC	-12.7
in O	-3.08

CCCCOC(=O)c1ccccc1O
Conditions	solvation free energy, 298 K [kcal/mol]
in O	-3.51

CC(C)CC(C)(C)C
Conditions	solvation free energy, 298 K [kcal/mol]
in C1CCOC1	-4.65
in CC1CCS(=O)(=O)C1	-2.59
in CC#N	-3.11
in CC(C)(C)O	-3.6
in CC(C)O	-3.68
in CC(C)OC(C)C	-4.57
in CCC(C)=O	-4.05
in CCCCCCCC	-4.53
in CCCCCCCCCCCCCCCC	-4.26
in CCCCCCCCCCO	-3.9
in CCCCCCO	-4.07
in CCCCCO	-3.89
in CCCCCl	-4.57
in CCCO	-3.67
in CCO	-3.84
in CN1CCCC1=O	-3.12
in CN(C)C=O	-3.18
in COC(C)(C)C	-4.65
in N#CCCOCCC#N	-1.86
in O	2.92
in O=CN1CCOCC1	-2.44
in OCCO	-1.05
in OCCOCCO	-1.78
in OCCOCCOCCO	-1.88
in OCCS	-2.36

OC(F)(C(F)F)C(F)(F)F (stereo not given)
Conditions	solvation free energy, 298 K [kcal/mol]
in CO	-6.53

C=CCCC
Conditions	solvation free energy, 298 K [kcal/mol]
in C=CCCCCCCCCCCCCCC	-2.77
in CC#N	-2.5
in CC(=O)N(C)C	-2.35
in CCC#N	-2.86
in CCC(C)=O	-2.88
in CCCC#N	-2.56
in CCCCC(CC)COC(=O)CCCCC(=O)OCC(CC)CCCC	-2.66
in CCCCCCC	-3.15
in CCCCCCCC	-3.1
in CCCCCCCCO	-2.63
in CCCCO	-2.65
in CCCCOC(=O)c1ccccc1C(=O)OCCCC	-2.7
in CCN1CCCC1=O	-2.46
in CCN(CC)C(C)=O	-2.62
in CCNC(C)=O	-2.46
in CCNC=O	-2.26
in CCOC(=O)c1ccccc1C(=O)OCC	-2.33
in CCOC(C)=O	-2.96
in CN1CCCC1=O	-2.25
in CN1CCCCC1=O	-2.41
in CN(C)C=O	-2.32
in CNC(C)=O	-2.22
in CNC=O	-1.98
in COC(C)=O	-2.88
in Cc1ccc(C)cc1	-3.11
in ClCCCl	-2.86
in Clc1ccccc1	-3.01
in N#Cc1ccccc1	-2.61
in O	1.68
in O=C1CCCCC1	-2.77
in O=C1CCCO1	-1.95
in O=CN1CCOCC1	-1.84
in OCCOCCO	-1.23

CCCN(CC1CC1)c1c([N+](=O)[O-])cc(C(F)(F)F)cc1[N+](=O)[O-]
Conditions	solvation free energy, 298 K [kcal/mol]
in O	-2.45

O=[N+]([O-])c1ccccc1
Conditions	solvation free energy, 298 K [kcal/mol]
in CCCCCC	-6.09
in CCCCCCC	-6.14
in CCCCCCCCCCCCCCCC	-6.12
in O	-4.23

CN1C(C(=O)Nc2ccccn2)=C(O)c2ccccc2S1(=O)=O
Conditions	solvation free energy, 298 K [kcal/mol]
in CN(C)C=O	-21
in NC=O	-19.3
in O	-15.8

Cc1ccc2ccccc2c1
Conditions	solvation free energy, 298 K [kcal/mol]
in O	-2.18

CCC=CCC
Conditions	solvation free energy, 298 K [kcal/mol]
in C=CCCCCCCCCCCCCCC	-3.51
in O	1.62

Cc1cc(O)ccc1Cl
Conditions	solvation free energy, 298 K [kcal/mol]
in O	-6.79

CCc1cccs1
Conditions	solvation free energy, 298 K [kcal/mol]
in O	-0.93

Oc1ccc(I)cc1
Conditions	solvation free energy, 298 K [kcal/mol]
in O	-7.61

Clc1c(Cl)c(Cl)c2ccccc2c1Cl
Conditions	solvation free energy, 298 K [kcal/mol]
in CCCCCCCCC=CCCCCCCCC(=O)OCC(COC(=O)CCCCCCCC=CCCCCCCCC)OC(=O)CCCCCCCC=CCCCCCCCC	-9.56
in O	-2.69
